# Assay results from patent publication US6914045B2, “Glycopeptide antibiotics” (Wyeth Holdings Corporation, priority 2001, dated 2005).
# Assays:
# Test in all cases: in vitro antibacterial evaluation, MIC by broth dilution
# Assay type in all cases: cell-based
# [1] = test system: Escherichia coli; details: 18 hours at 35° C.
# [2] = test system: Staphylococcus sp.; details: broth dilution, 18 hours at 35° C.; for MIC Staphylococcus aureus (ATCC 29213): strain ATCC 29213; for MIC Staphylococcus aureus (GC 1131): strain GC 1131; for MIC Staphylococcus aureus (GC 3051): strain GC 3051; for MIC Staphylococcus aureus (GC 3053): strain GC 3053; for MIC Staphylococcus aureus (GC 4541): strain GC 4541; for MIC Staphylococcus aureus (GC 4542): strain GC 4542; for MIC Staphylococcus aureus-SMITH (GC 4543): strain GC 4543; for MIC Staphylococcus aureus (GC 4544): strain GC 4544; for MIC Staphylococcus aureus (GC 4545): strain GC 4545; for MIC Staphylococcus haemolyticus (GC 4546): strain GC 4546; for MIC Coagulase Negative Staphylococcus (GC 4547): strain GC 4547; for MIC Coagulase Negative Staphylococcus (GC 4548): strain GC 4548; for MIC Coagulase Negative Staphylococcus (GC 4549): strain GC 4549; for MIC Coagulase Negative Staphylococcus (GC 4551): strain GC 4551
# Outline: (§1)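 Broth dilution per NCCLS standard M7-A2 in Muller-Hinton II […], with an inoculum of 5×10^5 CFU/mL and antibiotic spanning 64-0.06 μg/mL. The MIC is the lowest concentration that inhibits growth of the organism.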
# [3] = test system: Enterococcus sp.; details: broth dilution, 18 hours at 35° C.
# Outline: as §1
# [4] = test system: Streptococcus sp.; details: broth dilution, 18 hours at 35° C.
# Outline: as §1
# [5] = inoculum 5×10^5 CFU/mL, strain ATCC 29212
# [6] = inoculum 5×10^5 CFU/mL, strain GC 2242
# [7] = inoculum 5×10^5 CFU/mL, strain GC 2243
# [8] = inoculum 5×10^5 CFU/mL, strain GC 2691
# [9] = inoculum 5×10^5 CFU/mL, strain GC 3059
# [10] = inoculum 5×10^5 CFU/mL, strain GC 4552
# [11] = inoculum 5×10^5 CFU/mL, strain GC 4553
# [12] = inoculum 5×10^5 CFU/mL, strain GC 4554
# [13] = inoculum 5×10^5 CFU/mL, strain GC 4556
# [14] = inoculum 5×10^5 CFU/mL, strain GC 4557
# [15] = inoculum 5×10^5 CFU/mL, strain GC 4558
# [16] = inoculum 5×10^5 CFU/mL, strain GC 6189
# [17] = inoculum 5×10^5 CFU/mL, strain ATCC 6301
# [18] = inoculum 5×10^5 CFU/mL, strain GC 1894
# [19] = inoculum 5×10^5 CFU/mL, strain GC 4563
# [20] = inoculum 5×10^5 CFU/mL, strain GC 4564
# [21] = inoculum 5×10^5 CFU/mL, strain GC 4565
smiles,measurement,setting,value
CC(c1ccccc1)C1NC(=O)CNC(=O)C(CO)NC(=O)C(C(O)C2CNC(=N)N2C2OC(CO)C(O)C(O)C2O)NC(=O)C(C(O)C2CNC(=N)N2)NC(=O)C(Cc2ccc(OC3OC(CO)C(OC4OC5COC6(OC5C(O)C4O)C(C)CCCC6C)C(O)C3O)cc2)NC1=O (stereo not drawn) [Example 206],MIC Escherichia coli (ATCC 25922),[1],32 µg/mL
same,MIC Escherichia coli (GC 4559),[1],32 µg/mL
same,MIC Escherichia coli (GC 4560),[1],1 µg/mL
same,MIC Staphylococcus aureus (ATCC 29213),[2],1 µg/mL
same,MIC Staphylococcus aureus (GC 1131),[2],1 µg/mL
same,MIC Staphylococcus aureus (GC 3051),[2],1 µg/mL
same,MIC Staphylococcus aureus (GC 3053),[2],1 µg/mL
same,MIC Staphylococcus aureus (GC 4541),[2],1 µg/mL
same,MIC Staphylococcus aureus (GC 4542),[2],1 µg/mL
same,MIC Staphylococcus aureus-SMITH (GC 4543),[2],1 µg/mL
same,MIC Staphylococcus aureus (GC 4544),[2],1 µg/mL
same,MIC Staphylococcus aureus (GC 4545),[2],1 µg/mL
same,MIC Staphylococcus haemolyticus (GC 4546),[2],0.5 µg/mL
same,MIC Coagulase Negative Staphylococcus (GC 4547),[2],1 µg/mL
same,MIC Coagulase Negative Staphylococcus (GC 4548),[2],0.5 µg/mL
same,MIC Coagulase Negative Staphylococcus (GC 4549),[2],0.5 µg/mL
same,MIC Coagulase Negative Staphylococcus (GC 4551),[2],1 µg/mL
same,MIC Enterococcus avium (GC 4558),[3],2 µg/mL
same,MIC Enterococcus faecalis (ATCC 29212),[3],1 µg/mL
same,MIC Enterococcus faecalis (GC 2242),[3],2 µg/mL
same,MIC Enterococcus faecalis (GC 2691),[3],2 µg/mL
same,MIC Enterococcus faecalis (GC 3059),[3],1 µg/mL
same,MIC Enterococcus faecalis (GC 4552),[3],2 µg/mL
same,MIC Enterococcus faecalis (GC 4553),[3],2 µg/mL
same,MIC Enterococcus faecalis (GC 4554),[3],2 µg/mL
same,MIC Enterococcus faecalis (GC 6189),[3],1 µg/mL
same,MIC Enterococcus faecium (GC 2243),[3],2 µg/mL
same,MIC Enterococcus faecium (GC 4556),[3],1 µg/mL
same,MIC Enterococcus faecium (GC 4557),[3],2 µg/mL
same,MIC Enterococcus faecalis (ATCC 29212),[3]; [5],1 µg/mL
same,MIC Enterococcus faecalis (GC 2242),[3]; [6],2 µg/mL
same,MIC Enterococcus faecium (GC 2243),[3]; [7],2 µg/mL
same,MIC Enterococcus faecalis (GC 2691),[3]; [8],2 µg/mL
same,MIC Enterococcus faecalis (GC 3059),[3]; [9],1 µg/mL
same,MIC Enterococcus faecalis (GC 4552),[3]; [10],2 µg/mL
same,MIC Enterococcus faecalis (GC 4553),[3]; [11],2 µg/mL
same,MIC Enterococcus faecalis (GC 4554),[3]; [12],2 µg/mL
same,MIC Enterococcus faecium (GC 4556),[3]; [13],1 µg/mL
same,MIC Enterococcus faecium (GC 4557),[3]; [14],2 µg/mL
same,MIC Enterococcus avium (GC 4558),[3]; [15],2 µg/mL
same,MIC Enterococcus faecalis (GC 6189),[3]; [16],1 µg/mL
same,MIC Streptococcus agalactiae (GC 4564),[4],0.25 µg/mL
same,MIC Streptococcus pneumoniae (ATCC 6301),[4],<0.12 µg/mL
same,MIC Streptococcus pneumoniae (GC 1894),[4],<0.12 µg/mL
same,MIC Streptococcus pneumoniae (GC 4565),[4],<0.12 µg/mL
same,MIC Streptococcus pyogenes (GC 4563),[4],1 µg/mL
same,MIC Streptococcus pneumoniae (ATCC 6301),[4]; [17],<0.12 µg/mL
same,MIC Streptococcus pneumoniae (GC 1894),[4]; [18],<0.12 µg/mL
same,MIC Streptococcus pyogenes (GC 4563),[4]; [19],1 µg/mL
same,MIC Streptococcus agalactiae (GC 4564),[4]; [20],0.25 µg/mL
same,MIC Streptococcus pneumoniae (GC 4565),[4]; [21],<0.12 µg/mL
CC(c1ccccc1)C1NC(=O)CNC(=O)C(CO)NC(=O)C(C(O)C2CNC(=N)N2C2OC(CO)C(O)C(O)C2O)NC(=O)C(C(O)C2CNC(=N)N2)NC(=O)C(Cc2ccc(OC3OC(CO)C(OC4OC5COC6(CC(C)(C)CC(C)(C)C6)OC5C(O)C4O)C(O)C3O)cc2)NC1=O (stereo not drawn) [Example 207],MIC Escherichia coli (ATCC 25922),[1],32 µg/mL
same,MIC Escherichia coli (GC 4559),[1],64 µg/mL
same,MIC Escherichia coli (GC 4560),[1],2 µg/mL
same,MIC Staphylococcus aureus (ATCC 29213),[2],1 µg/mL
same,MIC Staphylococcus aureus (GC 1131),[2],2 µg/mL
same,MIC Staphylococcus aureus (GC 3051),[2],2 µg/mL
same,MIC Staphylococcus aureus (GC 3053),[2],1 µg/mL
same,MIC Staphylococcus aureus (GC 4541),[2],1 µg/mL
same,MIC Staphylococcus aureus (GC 4542),[2],1 µg/mL
same,MIC Staphylococcus aureus-SMITH (GC 4543),[2],1 µg/mL
same,MIC Staphylococcus aureus (GC 4544),[2],1 µg/mL
same,MIC Staphylococcus aureus (GC 4545),[2],1 µg/mL
same,MIC Staphylococcus haemolyticus (GC 4546),[2],1 µg/mL
same,MIC Coagulase Negative Staphylococcus (GC 4547),[2],1 µg/mL
same,MIC Coagulase Negative Staphylococcus (GC 4548),[2],0.5 µg/mL
same,MIC Coagulase Negative Staphylococcus (GC 4549),[2],0.5 µg/mL
same,MIC Coagulase Negative Staphylococcus (GC 4551),[2],4 µg/mL
same,MIC Enterococcus avium (GC 4558),[3],1 µg/mL
same,MIC Enterococcus faecalis (ATCC 29212),[3],4 µg/mL
same,MIC Enterococcus faecalis (GC 2242),[3],4 µg/mL
same,MIC Enterococcus faecalis (GC 2691),[3],2 µg/mL
same,MIC Enterococcus faecalis (GC 3059),[3],2 µg/mL
same,MIC Enterococcus faecalis (GC 4552),[3],4 µg/mL
same,MIC Enterococcus faecalis (GC 4553),[3],4 µg/mL
same,MIC Enterococcus faecalis (GC 4554),[3],4 µg/mL
same,MIC Enterococcus faecalis (GC 6189),[3],2 µg/mL
same,MIC Enterococcus faecium (GC 2243),[3],4 µg/mL
same,MIC Enterococcus faecium (GC 4556),[3],4 µg/mL
same,MIC Enterococcus faecium (GC 4557),[3],2 µg/mL
same,MIC Enterococcus faecalis (ATCC 29212),[3]; [5],4 µg/mL
same,MIC Enterococcus faecalis (GC 2242),[3]; [6],4 µg/mL
same,MIC Enterococcus faecium (GC 2243),[3]; [7],4 µg/mL
same,MIC Enterococcus faecalis (GC 2691),[3]; [8],2 µg/mL
same,MIC Enterococcus faecalis (GC 3059),[3]; [9],2 µg/mL
same,MIC Enterococcus faecalis (GC 4552),[3]; [10],4 µg/mL
same,MIC Enterococcus faecalis (GC 4553),[3]; [11],4 µg/mL
same,MIC Enterococcus faecalis (GC 4554),[3]; [12],4 µg/mL
same,MIC Enterococcus faecium (GC 4556),[3]; [13],4 µg/mL
same,MIC Enterococcus faecium (GC 4557),[3]; [14],2 µg/mL
same,MIC Enterococcus avium (GC 4558),[3]; [15],1 µg/mL
same,MIC Enterococcus faecalis (GC 6189),[3]; [16],2 µg/mL
same,MIC Streptococcus agalactiae (GC 4564),[4],<0.12 µg/mL
same,MIC Streptococcus pneumoniae (ATCC 6301),[4],<0.12 µg/mL
same,MIC Streptococcus pneumoniae (GC 1894),[4],<0.12 µg/mL
same,MIC Streptococcus pneumoniae (GC 4565),[4],<0.12 µg/mL
same,MIC Streptococcus pyogenes (GC 4563),[4],<0.12 µg/mL
same,MIC Streptococcus pneumoniae (ATCC 6301),[4]; [17],<0.12 µg/mL
same,MIC Streptococcus pneumoniae (GC 1894),[4]; [18],<0.12 µg/mL
same,MIC Streptococcus pyogenes (GC 4563),[4]; [19],<0.12 µg/mL
same,MIC Streptococcus agalactiae (GC 4564),[4]; [20],<0.12 µg/mL
same,MIC Streptococcus pneumoniae (GC 4565),[4]; [21],<0.12 µg/mL
